Experimental data reported in patent US8119660B2, “Small-molecule inhibitors of the androgen receptor” (The Regents of the University of California, priority 2007, dated 2012).
“Also recorded” adds a separate entry of the source. Structures can show the parent of a compound that is named as a salt.

What was measured:
[1] = tested on: LAPC4 cells; assay: Cell proliferation (DNA content, DAPI), LAPC4; assay type: cell-based, human; details: LAPC4, 3 nM DHT, seven days; PP 100 nM, HH 100 nM, BiC 1 μM
Description: (§1) LN-AR cells were created by retroviral infection of a high-expressing AR vector into LNCaP cells, and proliferate independent of androgen in cell culture, unlike their parental line (Chen, C. D., et al., Molecular determinants of resistance to antiandrogen therapy. Nat Med, 2004. 10(1): p. 33-9). HEK293 cells were used as a control. Cells were transferred to charcoal-stripped media two days before they were split and plated in quadruplicate at a density of approximately 20,000 cells/well in 48-well plates. […] Media were changed every day, using a single preparation to ensure consistent compound concentrations. Proliferation was determined by measuring the DNA content of the cells in each well. Each day, the cells in four wells were fixed in 100% cold methanol, followed by staining for 5 min at RT with 0.2 ng/mL 4′,6-diamidino-2-phenylindole (DAPI) in PBS. The cells were washed once in PBS, then read on a fluorescence plate reader using 365/439 excitation/emission wavelengths. LAPC4 and LNCaP cells proliferated to a much greater degree in the presence of DHT, while LN-AR cells proliferated in the presence and absence of DHT.

[2] = tested on: LNCaP cells; assay: Cell proliferation (DNA content, DAPI), LNCaP; assay type: cell-based, human; details: 3 nM DHT, seven days, PP 100 nM, HH 100 nM, BiC 1 μM, hydrochloride
Description: as §1

[3] = Pharmacokinetics in mice, drug levels by mass spectrometry; assay type: in vivo; details: for concentration at […]: 0.25 hr
Description: Serum samples were obtained at fixed time intervals, and the drug levels determined by mass spectrometry.

[4] = tested on: HEK293 cells; assay: Cell proliferation (DNA content, DAPI), HEK293 control; assay type: cell-based; details: HEK293, seven days; PP 100 nM, HH 100 nM, BiC 1 μM
Description: as §1

[5] = target: T1, endogenous wild-type AR, LAPC4 cells (Homo sapiens, UniProt P10275); assay: PSA-luciferase reporter assay in LAPC4 cells with DHT; assay type: cell-based; details: 3 nM DHT
T1 construct: that each express endogenous AR; endogenous in cells; host or cells: LAPC4
T1 sequence (P10275 1-920): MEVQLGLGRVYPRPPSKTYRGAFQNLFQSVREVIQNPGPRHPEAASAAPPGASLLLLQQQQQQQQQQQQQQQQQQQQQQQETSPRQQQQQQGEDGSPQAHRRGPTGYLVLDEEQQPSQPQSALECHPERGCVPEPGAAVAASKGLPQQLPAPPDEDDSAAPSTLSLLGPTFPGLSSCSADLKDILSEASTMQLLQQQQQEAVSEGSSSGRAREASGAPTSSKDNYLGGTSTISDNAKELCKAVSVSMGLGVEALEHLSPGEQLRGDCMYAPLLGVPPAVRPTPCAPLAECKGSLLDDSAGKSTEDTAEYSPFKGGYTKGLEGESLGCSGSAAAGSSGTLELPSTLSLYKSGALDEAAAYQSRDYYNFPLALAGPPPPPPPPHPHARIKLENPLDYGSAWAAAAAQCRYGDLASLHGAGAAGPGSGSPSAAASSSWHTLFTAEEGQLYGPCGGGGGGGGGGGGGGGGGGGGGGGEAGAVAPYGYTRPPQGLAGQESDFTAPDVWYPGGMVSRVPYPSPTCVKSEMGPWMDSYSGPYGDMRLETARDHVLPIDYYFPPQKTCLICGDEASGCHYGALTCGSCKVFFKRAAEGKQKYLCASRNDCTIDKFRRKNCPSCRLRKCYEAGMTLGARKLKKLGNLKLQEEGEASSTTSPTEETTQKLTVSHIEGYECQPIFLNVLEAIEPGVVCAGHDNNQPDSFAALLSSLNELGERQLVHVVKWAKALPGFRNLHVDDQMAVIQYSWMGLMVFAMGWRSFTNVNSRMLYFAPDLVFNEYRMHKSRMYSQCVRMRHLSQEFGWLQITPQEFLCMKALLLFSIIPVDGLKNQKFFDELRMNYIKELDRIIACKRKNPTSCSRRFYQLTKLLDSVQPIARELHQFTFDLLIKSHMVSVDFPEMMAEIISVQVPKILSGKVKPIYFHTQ
Protocol: Cells were transfected with two reporter plasmids, a PSA-luciferase construct (androgen responsive), and an SV40-renilla luciferase construct as an internal control. The following day, the cells were split and drugs added in the presence of 3 nM DHT. Luciferase production was measured the following day (Dual luciferase assay kit, Promega).
Synergism can be defined as a combination index of less than one, using the non-exclusive assumption described by Chou et al. (Chou, T. C. and P. Talalay, Quantitative analysis of dose-effect relationships: the combined effects of multiple drugs or enzyme inhibitors. Adv Enzyme Regul, 1984. 22: p. 27-55).

What does the source list for `Cc1nccc2c1[nH]c1cc(O)ccc12` [HH, harmol hydrochloride]?
Inhibition of cell growth [1]: not effective; Inhibition of cell growth [2]: inhibited significantly; also recorded: exhibited growth-inhibitory properties; concentration at […] ([3]; FVB, mouse, plasma, mice, IP, 5 mg/kg single dose): 32.3 ng/mL; concentration at 1 h ([3]; FVB, mouse, plasma, mice, IP, 5 mg/kg single dose, 1 hr): 5 ng/mL; concentration at […] ([3]; FVB, mouse, plasma, mice, PO, 5 mg/kg single dose): 6.7 ng/mL; Clearance / half-life in words ([3]; Wild-type FVB mice, single intraperitoneal injection): rapidly cleared; Non-specific growth inhibition of control cells [4]: Neither compound exhibited non-specific growth inhibition; IC50 [5]: 106 nM
